Literature values in patent US11053524B2, “Microorganisms having putrescine productivity and process for producing putrescine using the same” (CJ CHEILJEDANG CORPORATION, priority 2013, dated 2021).

Columns and labels:
potE = potE (Escherichia coli, UniProt P0AAF1); conditions: read-out: Km of putrescine uptake
puuP = puuP (Escherichia coli, UniProt P76037); conditions: read-out: Km of putrescine uptake
PotFGHI = PotFGHI (Escherichia coli, UniProt P31133); conditions: read-out: Km of putrescine uptake
Chain of PotFGHI (P31133 27-370): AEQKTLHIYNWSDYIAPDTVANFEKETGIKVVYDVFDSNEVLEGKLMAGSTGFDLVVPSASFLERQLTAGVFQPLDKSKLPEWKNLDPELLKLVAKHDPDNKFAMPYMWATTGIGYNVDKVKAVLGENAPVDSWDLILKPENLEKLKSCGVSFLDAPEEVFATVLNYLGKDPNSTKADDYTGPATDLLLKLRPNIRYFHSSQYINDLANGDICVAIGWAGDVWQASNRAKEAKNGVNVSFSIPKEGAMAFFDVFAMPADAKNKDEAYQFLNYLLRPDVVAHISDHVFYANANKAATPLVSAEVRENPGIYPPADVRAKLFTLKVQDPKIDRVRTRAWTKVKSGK

potABCD = potABCD (Escherichia coli, UniProt P0AFK9); conditions: read-out: Km of putrescine uptake
Chain of potABCD (P0AFK9 24-348): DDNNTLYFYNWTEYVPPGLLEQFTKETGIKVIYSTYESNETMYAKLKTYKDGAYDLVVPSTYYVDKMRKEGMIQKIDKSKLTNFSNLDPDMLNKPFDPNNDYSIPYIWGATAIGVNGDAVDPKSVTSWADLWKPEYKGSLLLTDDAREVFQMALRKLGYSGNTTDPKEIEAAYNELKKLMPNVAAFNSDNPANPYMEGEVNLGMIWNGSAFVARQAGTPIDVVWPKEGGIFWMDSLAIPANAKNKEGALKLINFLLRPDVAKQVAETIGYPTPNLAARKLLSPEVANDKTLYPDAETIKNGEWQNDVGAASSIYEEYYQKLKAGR

Chain of puuP (P76037 whole entry): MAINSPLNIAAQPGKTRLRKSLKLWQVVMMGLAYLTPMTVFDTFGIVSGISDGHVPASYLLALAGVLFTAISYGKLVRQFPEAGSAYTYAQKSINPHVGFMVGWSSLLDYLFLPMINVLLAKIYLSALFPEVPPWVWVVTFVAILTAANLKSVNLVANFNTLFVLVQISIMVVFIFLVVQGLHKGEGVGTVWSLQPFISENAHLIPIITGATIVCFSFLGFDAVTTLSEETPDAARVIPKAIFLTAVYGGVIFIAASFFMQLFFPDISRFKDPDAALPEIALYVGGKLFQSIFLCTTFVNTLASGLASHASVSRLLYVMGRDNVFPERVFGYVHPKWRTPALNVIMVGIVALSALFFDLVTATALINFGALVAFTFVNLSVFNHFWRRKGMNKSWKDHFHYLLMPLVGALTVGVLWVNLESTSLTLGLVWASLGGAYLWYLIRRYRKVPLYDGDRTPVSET
Chain of potE (P0AAF1 whole entry): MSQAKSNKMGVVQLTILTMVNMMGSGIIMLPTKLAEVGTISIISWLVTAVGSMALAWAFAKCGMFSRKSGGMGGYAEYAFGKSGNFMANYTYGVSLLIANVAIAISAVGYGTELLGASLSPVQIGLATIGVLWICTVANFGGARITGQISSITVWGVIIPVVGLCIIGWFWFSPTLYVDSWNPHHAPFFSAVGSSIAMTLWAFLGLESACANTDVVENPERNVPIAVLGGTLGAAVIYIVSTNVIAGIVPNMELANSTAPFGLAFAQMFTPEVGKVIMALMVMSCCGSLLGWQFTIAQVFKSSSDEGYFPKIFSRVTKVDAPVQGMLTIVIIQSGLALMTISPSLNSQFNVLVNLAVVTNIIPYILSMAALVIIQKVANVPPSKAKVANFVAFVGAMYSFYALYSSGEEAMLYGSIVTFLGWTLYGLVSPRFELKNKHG

Q: What does the source list for `NCCCCN` [putrescine, 1,4-butanediamine]?
A: Km (potE): 1800 µM; Km (puuP): 3700 µM; Km (PotFGHI): 500 µM; Km (potABCD): 1500 µM; putrescine concentration to which the cell is sensitive (yeast cell): 90 mM; putrescine concentration to which the cell is resistant (yeast cell; yeast cell over-expressing TPO5 gene): 120 mM
